Test results published in article PMC6533912 (Journal of medicinal chemistry, 2018).
One block for each compound: values may come before it.

Key:
[1] = target: T1, human 5-HT2CR (unedited INI isoform) (Homo sapiens, UniProt P28335); experiment: 5-HT-induced Cai2+ release assay in live h5-HT2CR-CHO cells; type: cell-based; details: for allosteric modulator (PAM/NAM) activity on 5-HT-induced Cai2+ release, in words: 1 nM test compound
T1 sequence (P28335 33-458): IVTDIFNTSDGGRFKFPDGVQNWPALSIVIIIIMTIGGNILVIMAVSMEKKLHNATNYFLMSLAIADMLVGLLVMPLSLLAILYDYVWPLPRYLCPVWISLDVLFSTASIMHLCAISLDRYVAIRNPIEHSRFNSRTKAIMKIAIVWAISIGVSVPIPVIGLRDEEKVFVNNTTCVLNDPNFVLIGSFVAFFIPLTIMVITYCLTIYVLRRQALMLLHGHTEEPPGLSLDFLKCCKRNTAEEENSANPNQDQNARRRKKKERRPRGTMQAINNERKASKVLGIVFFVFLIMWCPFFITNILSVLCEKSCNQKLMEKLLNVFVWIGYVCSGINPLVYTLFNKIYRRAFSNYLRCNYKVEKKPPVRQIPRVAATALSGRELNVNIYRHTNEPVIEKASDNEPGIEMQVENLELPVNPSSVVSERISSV

[2] = target: norepinephrine transporter (NET) (Homo sapiens, UniProt P23975); experiment: NIMH PDSP radioligand displacement; details: 10 μM
Sequence of norepinephrine transporter (NET) (P23975 whole entry, species assumed): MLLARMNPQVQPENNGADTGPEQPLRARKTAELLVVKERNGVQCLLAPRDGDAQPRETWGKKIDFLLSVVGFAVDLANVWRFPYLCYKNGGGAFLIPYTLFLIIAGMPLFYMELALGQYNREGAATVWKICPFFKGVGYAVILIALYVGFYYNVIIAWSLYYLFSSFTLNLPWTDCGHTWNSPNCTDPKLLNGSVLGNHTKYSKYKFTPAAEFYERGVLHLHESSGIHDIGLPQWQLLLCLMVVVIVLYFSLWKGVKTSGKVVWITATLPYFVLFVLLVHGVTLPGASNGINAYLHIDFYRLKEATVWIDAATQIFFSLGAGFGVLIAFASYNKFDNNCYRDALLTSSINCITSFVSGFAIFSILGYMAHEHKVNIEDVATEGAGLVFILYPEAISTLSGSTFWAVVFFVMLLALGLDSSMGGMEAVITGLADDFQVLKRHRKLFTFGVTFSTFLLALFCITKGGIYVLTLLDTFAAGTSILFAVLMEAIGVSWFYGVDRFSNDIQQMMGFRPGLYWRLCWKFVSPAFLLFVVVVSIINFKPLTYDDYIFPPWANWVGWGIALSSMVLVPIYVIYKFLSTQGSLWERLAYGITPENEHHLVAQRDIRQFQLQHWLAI

[3] = tested on: male Sprague–Dawley rats; experiment: Spontaneous locomotor activity; type: in vivo; details: rat
[4] = tested on: male Sprague–Dawley rats; experiment: Cocaine self-administration cue reactivity test; type: in vivo; details: 1 mg/kg ip, rat
[5] = target: 5-HT1BR (Homo sapiens, UniProt P28222); experiment: NIMH PDSP radioligand displacement; details: read-out: % inhib (10 μm)
Sequence of 5-HT1BR (P28222 whole entry): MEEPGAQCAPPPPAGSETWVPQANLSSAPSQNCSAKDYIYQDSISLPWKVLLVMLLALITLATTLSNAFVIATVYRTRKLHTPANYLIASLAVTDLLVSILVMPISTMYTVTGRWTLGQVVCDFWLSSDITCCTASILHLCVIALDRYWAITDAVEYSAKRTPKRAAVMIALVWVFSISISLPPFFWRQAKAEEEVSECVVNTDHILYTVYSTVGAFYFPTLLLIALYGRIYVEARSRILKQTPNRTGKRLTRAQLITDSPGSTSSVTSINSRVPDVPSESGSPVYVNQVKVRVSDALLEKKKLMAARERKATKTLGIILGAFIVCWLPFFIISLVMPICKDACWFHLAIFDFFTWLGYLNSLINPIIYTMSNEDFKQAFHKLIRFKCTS

[6] = target: T2, human 5-HT2AR (Homo sapiens, UniProt P28223); experiment: 5-HT-evoked Cai2+ release assay in live h5-HT2AR-CHO cells; type: cell-based; details: 1 pM, 1 nM, 1 μM
T2 sequence (P28223 whole entry): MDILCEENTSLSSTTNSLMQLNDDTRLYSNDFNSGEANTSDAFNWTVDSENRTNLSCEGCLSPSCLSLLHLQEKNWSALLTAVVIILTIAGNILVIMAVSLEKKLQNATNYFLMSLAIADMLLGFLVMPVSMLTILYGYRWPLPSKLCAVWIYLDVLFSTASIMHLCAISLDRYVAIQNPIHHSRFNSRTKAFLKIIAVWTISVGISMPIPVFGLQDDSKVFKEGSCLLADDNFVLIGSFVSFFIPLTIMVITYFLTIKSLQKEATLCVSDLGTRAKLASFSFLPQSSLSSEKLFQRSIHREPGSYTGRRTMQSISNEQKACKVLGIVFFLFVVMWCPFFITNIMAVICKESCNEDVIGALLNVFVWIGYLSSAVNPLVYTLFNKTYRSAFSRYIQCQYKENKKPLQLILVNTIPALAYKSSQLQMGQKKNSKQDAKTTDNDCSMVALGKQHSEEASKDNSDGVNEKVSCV

[7] = target: T3, dopamine receptor D4 (Homo sapiens, UniProt P21917); experiment: NIMH PDSP radioligand displacement; details: read-out: % inhib (10 μm)
T3 sequence (P21917 1-419): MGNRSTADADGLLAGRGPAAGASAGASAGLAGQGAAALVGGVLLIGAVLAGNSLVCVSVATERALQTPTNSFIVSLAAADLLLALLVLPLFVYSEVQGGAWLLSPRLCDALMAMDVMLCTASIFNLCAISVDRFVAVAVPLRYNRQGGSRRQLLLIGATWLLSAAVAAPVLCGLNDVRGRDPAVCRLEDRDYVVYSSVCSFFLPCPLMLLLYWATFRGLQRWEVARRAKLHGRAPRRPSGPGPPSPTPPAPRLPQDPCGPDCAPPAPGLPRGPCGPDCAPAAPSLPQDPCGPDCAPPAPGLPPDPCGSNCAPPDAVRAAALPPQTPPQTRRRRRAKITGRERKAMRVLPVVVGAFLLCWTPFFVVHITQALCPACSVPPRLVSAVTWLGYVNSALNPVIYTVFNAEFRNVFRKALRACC

[8] = tested on: male Sprague–Dawley rats; experiment: WAY163909 vs saline drug discrimination assay; type: in vivo
[9] = target: T1, human 5-HT2CR (unedited INI isoform); details: cited from earlier work
[10] = target: T2, human 5-HT2AR; details: cited from earlier work

Structure (SMILES): CCCCCCCCCCC[C@@H]1CCN[C@H](C(=O)NC[C@@H](O)CO)C1 (mixture of isomers) [Compound 16a, cis-N-((R)-2,3-Dihydroxypropyl)-4-undecylpiperidine-2-carboxamide]
- allosteric modulator (PAM/NAM) activity on 5-HT-induced Cai2+ release, in words [1]: lacked appreciable PAM activity

Structure (SMILES): CCCCCCCCCCC[C@@H]1CCN[C@H](C(=O)NC[C@H](O)CO)C1 (mixture of isomers) [Compound 16b, cis-N-((S)-2,3-Dihydroxypropyl)-4-undecylpiperidine-2-carboxamide]
- allosteric modulator (PAM/NAM) activity on 5-HT-induced Cai2+ release, in words [1]: displayed significant PAM activity

- allosteric modulator (PAM/NAM) activity on 5-HT-induced Cai2+ release, in words [1]: no significant PAM activity
Structure (SMILES): CCCCCCCCCCC[C@@H]1CCN[C@H](C(=O)NCCO)C1 (relative stereo) [Compound 8, cis-N-(2-Hydroxyethyl)-4-undecylpiperidine-2-carboxamide]

Structure (SMILES): CCCCCCCCCCC[C@@H]1CCN[C@H](C(=O)NCC(O)CO)C1 (relative stereo) [Compound 16, cis-4-Undecylpiperidine-2-carboxylic Acid (2,3-Dihydroxypropyl)amide]
- displacement of radioligand binding [2]: did not displace binding
- ambulations ([3]; 1 mg/kg ip): not associated with suppressed ambulations
- mean total ambulations in 30 min vs saline ([3]; 5 mg/kg ip): significantly reduced mean total ambulations
- mean total vertical activity in 30 min vs saline ([3]; 5 mg/kg ip): significantly reduced mean total vertical activity
- previously active lever presses reinforced by the discrete cue complex vs saline ([4]; 15 min before cue reactivity session): significantly lower
- inactive lever presses vs saline [4]: did not significantly alter inactive lever presses
- effect on 5-HT potency (leftward shift of 5-HT curve) ([1]; 1 pM, 1 nM, 1 μM): did not impact 5-HT potency
- shift of 5-HT-evoked Cai2+ release concentration-response curve ([1]; 1 pM, 1 nM, 1 μM): upward shift of 5-HT-evoked Cai^2+ release at multiple concentrations
- allosteric modulator (PAM/NAM) activity on 5-HT-induced Cai2+ release, in words [1]: significant PAM activity
- intrinsic agonist efficacy to induce Cai2+ release in the absence of 5-HT ([1]; 1 nM, compound alone): did not stimulate Cai^2+ release
- inhibition at 10 µM [5]: -18.1%
- change in 5-HT Emax or EC50 at the 5-HT2AR [6]: no change in the 5-HT Emax or EC50
- inhibition at 10 µM [7]: -14.2%
- substitution for the WAY163909 stimulus, in words ([8]; 0.125–1.0 mg/kg ip, given alone): partially substituted for WAY163909

Structure (SMILES): CCCCCCCCCCC[C@@H]1CCN[C@H](C(=O)N[C@@H]([C@H]2O[C@H](SC)[C@H](O)[C@@H](O)[C@H]2O)[C@H](C)Cl)C1.Cl [Compound 1]
- shift of the 5-HT-evoked Cai2+ response curve ([9]; 1 nM, previous titration studies): leftward shift of the 5-HT-evoked Cai^2+ response curve
- intrinsic agonist activity at the 5-HT2CR [9]: no intrinsic agonist activity
- intrinsic agonist activity at the 5-HT2AR [10]: no intrinsic agonist activity

- allosteric modulator (PAM/NAM) activity on 5-HT-induced Cai2+ release, in words [1]: no significant PAM activity
Structure (SMILES): CCCCCCCCCCC[C@@H]1CCN[C@H](C(=O)O)C1 [Compound 7, (cis-2,4)-4-Undecylpiperidine-2-carboxylic acid]

Structure (SMILES): c1cc2c3c(c1)[C@H]1CCC[C@H]1N3CCNC2 [WAY163909, (7b-R,10a-R)-1,2,3,4,8,9,10,10a-octahydro-7bH-cyclopenta[b][1,4]diazepino[6,7,1hi]indole]
- WAY163909-appropriate responding ([8]; 0.5 mg/kg ip, given alone): ~30%
- dose predicted to elicit 50% of WAY163909-lever responding (ED50) ([8]; ip, rats trained on WAY163909 0.75 mg/kg vs saline, log-probit): 0.53 mg/kg
- WAY163909-appropriate responding ([8]; training dose 0.75 mg/kg ip): Greater than 95%
